Test results published in patent publication US20110251379A1, “COMPOUNDS USEFUL FOR TREATING NEURODEGENERATIVE DISORDERS” (Satori Pharmaceuticals, Inc., priority 2010, published 2011).
Read-outs that look alike come from different tables or passages of the source.

Legend:
Format in all cases: cell-based
Aβ-42 = assay: MSD Human (6E10) Ab 3-PLEX elisa, conditioned media of 2B7 cells: Aβ-42; details: for IC50: Aβ-42 (superscript c)
Protocol: (§1) Assays were conducted to determine the ability of a Compound of Formula I to modulate […], and Aβ-38.
(§2) Plates with capture antibodies were blocked for 1-2 hours at room temperature with 150 μL of the manufactures blocking reagent.
(§3) Conditioned Media: • Cultured 2B7 cells in 96 well plate with 250 uL of media per well until confluent; • Prepared serial dilutions of compounds in DMSO at 100× the final desired concentration; • Washed wells with 2B7 cells 1× with 250 uL of media; • Diluted DMSO stocks 1:100 into media: • Added 250 μL of media containing compounds (1% DMSO) to wells with 2B7 cells for 5 hours at 37° C.
(§4) Elisa Sample Prep: • Diluted conditioned media: 1 part media with 1% DMSO and 1 part blocking buffer; • 150 μL of the 250 μL of conditioned media were used.
(§5) […] CURVE SAMPLE PREP: Prepared per manufacturer's protocol (see above) • Seven point standard curve samples were prepared that contained Aβ-42, Aβ-40, and Aβ-38. The highest concentration of Aβ-42 and Aβ-3-38 was 3,000 pg/mL and the highest concentration of Aβ-40 was 10,000 pg/mL. Subsequent serial dilutions were 1:3 and the final composition of each sample was 1 part blocking buffer and 1 part cell medium containing 1% DMSO.
(§6) Overnight Sample Incubation: • Blocked plates are washed 5× with MSD wash buffer with a plate washer • 25 uL of detection antibody and blocker G reagent in MSD blocking solution is added • 25 uL of samples (1 part conditioned media containing 1% DMSO and 1 part MSD blocking buffer) are then added. • plates are incubated overnight at 4 degrees C. or 2 hours at room temp
(§7) Final Wash and Readout: • Wash wells 5× with MSD wash buffer • Added 150 μL 2×MSD read buffer • Read with MSD imager.
(§8) A-Beta peptide levels for each peptide are calculated from the standard curve using the MSD software provided with the MSD 2400 Imager. Percent vehicle values for each compound dosage were then calculated and fit to a 4 parameter curve generating IC50 values.

Aβ-40 = assay: MSD Human (6E10) Ab 3-PLEX elisa, conditioned media of 2B7 cells: Aβ-40; details: for IC50: Aβ-40 (superscript b); for inhibition at 20 µM / % Inh. (range): Aβ-40, 20 μM
Protocol: as §1, §2, §3, §4, §5, §6, §7, §8

Aβ-38 = assay: MSD Human (6E10) Ab 3-PLEX elisa, conditioned media of 2B7 cells: Aβ-38
Protocol: as §1, §2, §3, §4, §5, §6, §7, §8

[1] = Homo sapiens, read-out: IC50 range
[2] = Homo sapiens, read-out: 50% reduction value
[3] = Homo sapiens, Aβ-38 (superscript a), read-out: 50% reduction value
[4] = Aβ-38 (superscript a), read-out: 50% reduction value
[5] = Aβ-38 (superscript a), read-out: IC50 range

C[C@@H]1CC(CNC(C(=O)O)C(F)(F)F)OC2[C@H]1[C@@]1(C)CC[C@@]34C[C@@]35CC[C@H](O[C@H]3CN(C(=O)CC6CC6)CCO3)C(C)(C)[C@@H]5CCC4[C@]1(C)[C@H]2O (some centres unmarked)
IC50 (Aβ-42; [1]): 1000 to 10000 nM
IC50 (Aβ-40; [1]): 1000 to 10000 nM

CC(=O)O[C@H](C(C)C)C1C[C@@H](C)[C@H]2C(O1)[C@H](O)[C@@]1(C)C3CC[C@H]4C(C)(C)[C@@H](O[C@H]5CN(C(=O)C(C)C)CCO5)CC[C@@]45C[C@@]35CC[C@]21C (some centres unmarked)
IC50 (Aβ-42; [2]): < 1000 nM
IC50 (Aβ-42; [1]): < 1000 nM
IC50 (Aβ-40; [2]): < 1000 nM
IC50 (Aβ-38; [3]): < 1000 nM
IC50 (Aβ-38; Homo sapiens, Aβ-38 (superscript a), read-out: IC50 range): < 1000 nM

COC(=O)NCC1C[C@@H](C)[C@H]2C(O1)[C@H](O)[C@@]1(C)C3CC[C@H]4C(C)(C)[C@@H](O)CC[C@@]45C[C@@]35CC[C@]21C (some centres unmarked)
inhibition at 20 µM (Aβ-42; Homo sapiens, Aβ-42, 20 μM): 25 to 75%
inhibition at 20 µM (Aβ-40; Homo sapiens): 25 to 75%
IC50 (Aβ-38; [3]): > 10000 nM

COC(=O)N(C)CC1C[C@@H](C)[C@H]2C(O1)[C@H](O)[C@@]1(C)C3CC[C@H]4C(C)(C)[C@@H](O)CC[C@@]45C[C@@]35CC[C@]21C (some centres unmarked)
inhibition at 20 µM (Aβ-42; Homo sapiens, Aβ-42, 20 μM): 25 to 75%
IC50 (Aβ-40; [2]): > 10000 nM
IC50 (Aβ-38; [3]): 1000 to 10000 nM

C[C@@H]1CC(CNC(=O)N(C)C)OC2[C@H]1[C@@]1(C)CC[C@@]34C[C@@]35CC[C@H](O)C(C)(C)[C@@H]5CCC4[C@]1(C)[C@H]2O (some centres unmarked)
inhibition at 20 µM (Aβ-42; Homo sapiens, Aβ-42, 20 μM): < 25%
inhibition at 20 µM (Aβ-40; Homo sapiens): 25 to 75%
IC50 (Aβ-38; [3]): > 10000 nM

C[C@@H]1CC(CN(C)C(=O)N(C)C)OC2[C@H]1[C@@]1(C)CC[C@@]34C[C@@]35CC[C@H](O)C(C)(C)[C@@H]5CCC4[C@]1(C)[C@H]2O (some centres unmarked)
inhibition at 20 µM (Aβ-42; Homo sapiens, Aβ-42, 20 μM): 25 to 75%
inhibition at 20 µM (Aβ-40; Homo sapiens): 25 to 75%
IC50 (Aβ-38; [3]): 1000 to 10000 nM

CC1CC(C(OC(=O)C2CC2)C(C)(C)O)OC2C1C1(C)CCC34CC35CCC(OC3CN(C6COC6)CCO3)C(C)(C)C5CCC4C1(C)C2O (centres unmarked)
IC50 (Aβ-42; read-out: 50% reduction value): 1000 to 10000 nM
IC50 (Aβ-40; read-out: 50% reduction value): 1000 to 10000 nM
IC50 (Aβ-38; [4]): 1000 to 10000 nM
IC50 (Aβ-38; [5]): < 1000 nM

CC1CC(C(OC(=O)C2CCOC2)C(C)(C)O)OC2C1C1(C)CCC34CC35CCC(OC3CN(C6COC6)CCO3)C(C)(C)C5CCC4C1(C)C2O (centres unmarked)
IC50 (Aβ-42; read-out: 50% reduction value): 1000 to 10000 nM
IC50 (Aβ-40; read-out: 50% reduction value): 1000 to 10000 nM
IC50 (Aβ-38; [4]): 1000 to 10000 nM
IC50 (Aβ-38; [5]): < 1000 nM

CC(C)CC(=O)OC(C1CC(C)C2C(O1)C(O)C1(C)C3CCC4C(C)(C)C(OC5CN(C6COC6)CCO5)CCC45CC35CCC21C)C(C)(C)O (centres unmarked)
IC50 (Aβ-42; read-out: 50% reduction value): 1000 to 10000 nM
IC50 (Aβ-42; read-out: IC50 range): 1000 to 10000 nM
IC50 (Aβ-40; read-out: 50% reduction value): 1000 to 10000 nM
IC50 (Aβ-40; read-out: IC50 range): 1000 to 10000 nM
IC50 range (nM) (Aβ-38; Aβ-38 (superscript a)): A- B
IC50 (Aβ-38; [4]): 1000 to 10000 nM

CC1CC(C(OC(=O)CC2CC2)C(C)(C)O)OC2C1C1(C)CCC34CC35CCC(OC3CN(C6COC6)CCO3)C(C)(C)C5CCC4C1(C)C2O (centres unmarked)
IC50 (Aβ-42; read-out: 50% reduction value): < 1000 nM
IC50 (Aβ-42; read-out: IC50 range): < 1000 nM
IC50 (Aβ-40; read-out: 50% reduction value): 1000 to 10000 nM
IC50 (Aβ-40; read-out: IC50 range): 1000 to 10000 nM
IC50 (Aβ-38; [4]): < 1000 nM
IC50 (Aβ-38; [5]): < 1000 nM

CCC1CC(C)C2C(O1)C(O)C1(C)C3CCC4C(C)(C)C(O)CCC45CC35CCC21C (centres unmarked)
% Inh. (range) (Aβ-42; Aβ-42, 20 μM): F (% inhibition of <25%)
% Inh. (range) (Aβ-40): E (% inhibition of 25-75%)
% Inh. (range) (Aβ-38; Aβ-38, 20 μM): E (% inhibition of 25-75%)

CC1CC(C2OCC(=O)OC2(C)C)OC2C1C1(C)CCC34CC35CCC(OC3CN(C6COC6)CCO3)C(C)(C)C5CCC4C1(C)C2O (centres unmarked)
IC50 (Aβ-42; read-out: 50% reduction value): 1000 to 10000 nM
IC50 (Aβ-40; read-out: 50% reduction value): 1000 to 10000 nM
IC50 (Aβ-38; [4]): 1000 to 10000 nM

CC1CC(C(OC(=O)C2CCOCC2)C(C)(C)O)OC2C1C1(C)CCC34CC35CCC(OC3CN(C6COC6)CCO3)C(C)(C)C5CCC4C1(C)C2O (centres unmarked)
IC50 (Aβ-42; read-out: 50% reduction value): < 1000 nM
IC50 (Aβ-40; read-out: 50% reduction value): 1000 to 10000 nM
IC50 (Aβ-40; read-out: IC50 range): 1000 to 10000 nM
IC50 (Aβ-38; [4]): < 1000 nM
IC50 (Aβ-38; [5]): < 1000 nM

COC1C2OC(C(OC(=O)C3CC3)C(C)(C)O)CC(C)C2C2(C)CCC34CC35CCC(OC3CNCCO3)C(C)(C)C5CCC4C12C (centres unmarked)
IC50 (Aβ-42; read-out: 50% reduction value): 1000 to 10000 nM
% Inh. (range) (Aβ-40): E^b (20 μM) (% inhibition of 25-75%)
IC50 (Aβ-38; [4]): 1000 to 10000 nM

CO[C@@H](C1C[C@@H](C)[C@H]2C(O1)[C@H](O)[C@@]1(C)C3CC[C@H]4C(C)(C)[C@@H](O)CC[C@@]45C[C@@]35CC[C@]21C)C(C)(C)O (some centres unmarked)
IC50 (Aβ-42; [2]): < 1000 nM
inhibition at 20 µM (Aβ-40; Homo sapiens): 25 to 75%
IC50 (Aβ-38; [3]): < 1000 nM
